Data reported in patent publication US20100048604A1, “Ligands for Aldoketoreductases” (priority 2004, published 2010).
Blank lines part the entries; values can stand above or below the compound they belong to.

Legend:
AKR1C3 = biological target: T1, AKR1C3 (Homo sapiens, UniProt P42330); experiment: Steady state kinetic parameters of fluorogenic substrates with purified AKR1C isozymes; format: biochemical
T1 construct: gift of Professor Trevor Penning (University of Pennsylvania School of Medicine)
T1 sequence (P42330 1-323): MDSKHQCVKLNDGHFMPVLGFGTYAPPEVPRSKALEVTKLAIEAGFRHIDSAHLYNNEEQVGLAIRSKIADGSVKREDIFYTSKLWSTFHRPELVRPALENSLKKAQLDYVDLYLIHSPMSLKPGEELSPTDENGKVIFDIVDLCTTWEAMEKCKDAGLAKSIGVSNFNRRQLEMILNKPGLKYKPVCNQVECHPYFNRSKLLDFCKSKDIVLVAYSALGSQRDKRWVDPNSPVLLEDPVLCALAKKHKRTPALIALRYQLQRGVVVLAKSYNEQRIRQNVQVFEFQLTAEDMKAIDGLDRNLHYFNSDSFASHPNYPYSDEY
Experimental: The initial reaction rates were used to derive standard kinetic parameters (kcat and Km, Materials and Methods).
Substrate tolerance of AKR1Cs: Isozyme Activity with 5a-5i: Activity of the second generation of fluorogenic substrates with the AKR1C isozymes was determined as follows. […] After mixing the aqueous components thoroughly, 20 μL of acetonitrile was added as a cosolvent and mixed well. […] 4 μL of undiluted AKR1C (provided generously by the Penning lab at concentrations of 2.5 mg/mL) were then added to the cuvette for a total of 10 μg purified enzyme in the 1 mL assay volume. Fluorescence arising from the respective alcohol reduction product was then monitored over the course of 5-10 minutes.
Binding constant and catalytic rates (Km and kcat) of the second generation of fluorogenic substrates was determined as follows. […] After mixing the aqueous components thoroughly, 20 μL of acetonitrile was added as a cosolvent and mixed well. […] To initiate the reduction, 2 or 4 μL of diluted AKR1C (1:2 to 1:100, depending on the kinetics of a particular isozyme's reduction of a substrate) was then added to the cuvette. Fluorescence arising from the respective alcohol reduction product was then monitored over the course of 3 minutes (Excitation and emission band pass slits both at 4 nm, lamp 700 V, λexc 410 nm, λem 510).
initial rate=[nst×(Ft−F0)/(Fst)]/t (1)
where Ft and F0 represent the fluorescence at times t and 0 minutes, nst is the nanomoles of product in a known concentration of product, and Fst is the fluorescence resulting from nst of product. […] Reported enzymatic kinetic parameters are the average of three independent determinations from three different preparations of substrate and enzyme.

HepG2 cell fractions = experiment: Metabolism of phenyl ketone 5c in HepG2 cell fractions; format: in vitro ADME, human; conditions: 10 μM 5c
Experimental: FIG. 17. Reactivity of HepG2 cell fractions with 5c. Assays were performed in 50 mM Tris-HCl buffer containing 1 mM NADPH, 10 μM 5c and 80 μg protein/mL, incubated for 60 minutes. Legend: (+) without flufenamic acid; (−) with 100 μM flufenamic acid; HepG2=hepatoma cell line.
Selectivity of Phenyl Ketone Probe 5c in Cellular Lysates: The selectivity of phenyl ketone probe 5c in human hepatoma cells (HepG2), which are known to express all four AKR1C isozymes in the cytoplasm, was tested. […] An issue may be non-selective reduction of probes with microsomes, which are organelles enriched with redox enzymes. Following one hour incubation of probe 5c with both cytosolic and microsomal fractions prepared from HepG2 cells, the resulting mixtures were analyzed fluorimetrically. […] Moreover, reduction by the cytoplasmic extract was suppressed by flufenamic acid, a known inhibitor of the AKR1C isozymes (Penning, T. M.; Talalay, P. Proc Natl Acad Sci USA 1983, 4504-4508).
HepG2 cells were obtained from and grown in the Penning laboratory (University of Pennsylvania School of Medicine). Cells were maintained at 37° C. and 5% CO2 containing Eagle's minimal essential medium supplemented with 100 U/mL penicillin, 100 μg/mL streptomycin, 2 mM L-glutamine, and 10 % heat-inactivated fetal bovine serum.
To measure metabolism of 5c in HepG2 cell fractions, the cells were harvested and fractionized as follows. HepG2 cells were grown to confluency on eight 15×100 mm dishes, whereupon 500 μL of ice cold Tris-HCl-sucrose buffer (50 mM Tris-HCl at pH 7.4, 250 mM sucrose, 1 mM EDTA, and 1 mM 2-mercaptoethanol) was added to each dish. Cells were scratched off and taken up directly into an ice cold potter. These cells were then homogenized and sonicated (10 one-second 10 W bursts, four times on ice). […]
Protein concentrations for whole or fractionized HepG2 cells were determined by standard Bradford assays (Bradford, M. M.; Anal. Biochem. 1976, 72, 248). […] Reactions were initiated with 80 μg of protein per 1 mL assay and monitored fluorimetrically for up to 2 hours. […]

[1] = Solubility in DMSO, methanol and acetonitrile; format: physicochemical; conditions: methanol, acetonitrile, organic solvent or mixture, read-out: solubility class (asterisk) in DMSO, methanol, and acetonitrile
[2] = biological target: T2, Pseudomonas testosteroni 3α-hydroxysteroid dehydrogenase (Comamonas testosteroni, UniProt P80702); experiment: Enzymatic screening of probes 1-7 against a panel of oxidoreductases; format: biochemical; conditions: 12 hour incubation, 30-50 μM substrate, pH 7, 250 μM NAD(P)H
T2 construct: purchased Sigma (St. Louis, Mo.) Lot Number 053K8624 (catalogue number not given)
T2 sequence (P80702 whole entry): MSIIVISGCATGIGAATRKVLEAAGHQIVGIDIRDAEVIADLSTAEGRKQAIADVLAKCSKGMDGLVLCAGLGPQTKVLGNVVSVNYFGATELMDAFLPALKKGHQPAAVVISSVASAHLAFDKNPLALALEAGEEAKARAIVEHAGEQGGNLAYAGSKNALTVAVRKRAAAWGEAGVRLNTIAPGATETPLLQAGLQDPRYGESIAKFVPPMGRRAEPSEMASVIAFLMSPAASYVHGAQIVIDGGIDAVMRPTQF
Experimental: (§1) FIG. 4. Screening of probes 1-7 against a panel of oxidoreductases Percentage fluorescence increase after 12 hour incubation of 30-50 μM substrate, 100 mM phosphate buffer (pH 7), 250 μM NAD(P)H, and 100 nM enzyme. Substrates 1, 2, 3, and 4 monitored at λexc=340 nm, λem=440 nm. Substrates 5, 6, and 7 monitored at λexc=440 nm, λem=510 nm. 3HSD, 3α-hydroxysteroid dehydrogenase (PT, Pseudomonas testosteroni), HLAD, horse liver alcohol dehydrogenase, TBAD, Thermoanaerobium brockii alcohol dehydrogenase, BS 12HSD, Bacillus sp. 12α-hydroxysteroid dehydrogenase, ABAD, amyloid-β binding alcohol dehydrogenase (human), GDH, glycerol dehydrogenase, YADH, yeast alcohol dehydrogenase, LDH, lactate dehydrogenase.
(§2) Probes 1-7 (see FIG. 3) were subsequently tested against a collection of dehydrogenases in the presence of NAD(P)H; the extent of reduction was assessed by the measurement of fluorescence intensity at the emission maximum of each probe (FIG. 4). This assay included enzymes from two major oxidoreductase superfamilies, the short chain alcohol dehydrogenases (SDR) and the aldo-keto reductases (AKR), ranging from bacterial to mammalian and human enzymes.
(§3) Horse Liver alcohol dehydrogenase (Lot Number 51K7520), Thermoanaerobium brockii NADP^+ dependent alcohol dehydrogenase (Lot Number 033K4093), Pseudomonas testosteroni 3α-hydroxysteroid dehydrogenase (Lot Number 053K8624), and Bacillus sphaericus 12α-hydroxysteroid dehydrogenase (Lot Number 70K16621) were purchased from Sigma (St. Louis, Mo.). Yeast alcohol dehydrogenase (Lot Number 93122920), glycerol dehydrogenase (Lot Number 92110122), (D)-lactate dehydrogenase (Lot Number 92419236), (L)-lactate dehydrogenase (Lot Number 92801821), NAD^+, NADP^+, NADH, and NADPH were purchased from Roche. Enzyme activity was confirmed by compliance to supplier's quality control assays prior to usage. Rat and human 3α-hydroxysteroid dehydrogenases were provided by Professor Trevor Penning (University of Pennsylvania School of Medicine) and human amyloid-β peptide binding alcohol dehydrogenase was supplied by Professor Shi Du Yan (Columbia University School for Physicians and Surgeons).
(§4) Enzymatic assays were performed in triplicate on selected fluorogenic substrates according to the following protocol. To each well of a FALCON 96-well black flat bottom plate was added (1) 40 μL of 500 mM potassium phosphate buffer pH 7.0, (2) 113 μL of double deionized water, (3) 25 μL of 2 mM NADH (except for Pseudomonas testosteroni 3α-hydroxysteroid dehydrogenase, rat 3α-hydroxysteroid dehydrogenase, and Thermoanaerobium brockii NADP^+ dependent alcohol dehydrogenase, in which cases 2 mM of NADPH was used), (4) 2 μL of a 3-5 mM solution of substrate in DMSO, and (5) 20 μL of a 40-50 μg/mL solution of enzyme. Reaction volumes were mixed thoroughly after addition of cofactor, substrate, and enzyme and allowed to react 12 hours at 25° C. Scanning of the 96-well plate was performed by the MicroMax 384 connected to a Jobin Yvon Fluorolog through F-3000 fiber optic cables.
(§5) Initial Screening with Fluorogenic Substrates: Screening of the first fluorogenic substrates for enzymatic activity has been described above. In short, 200 μL enzymatic assay volumes containing 100 mM potassium phosphate buffer (pH 7), 250 μM NAD(P)H cofactor, and 30-50 μM of ketones (1-7) were incubated for 12 hours on a black FALCON 96-well plate. Formation of the alcohol reduction product was determined by reading the fluorescence arising from excitation at the corresponding alcohol at either 340 nm (27-30) or 440 nm (31-33).

[3] = biological target: T3, rat 3α-hydroxysteroid dehydrogenase (Rattus norvegicus, UniProt P23457); experiment: as above; format: biochemical; conditions: 12 hour incubation, 30-50 μM substrate, pH 7, 250 μM NAD(P)H
T3 construct: gift of Professor Trevor Penning (University of Pennsylvania School of Medicine)
T3 sequence (P23457 1-322): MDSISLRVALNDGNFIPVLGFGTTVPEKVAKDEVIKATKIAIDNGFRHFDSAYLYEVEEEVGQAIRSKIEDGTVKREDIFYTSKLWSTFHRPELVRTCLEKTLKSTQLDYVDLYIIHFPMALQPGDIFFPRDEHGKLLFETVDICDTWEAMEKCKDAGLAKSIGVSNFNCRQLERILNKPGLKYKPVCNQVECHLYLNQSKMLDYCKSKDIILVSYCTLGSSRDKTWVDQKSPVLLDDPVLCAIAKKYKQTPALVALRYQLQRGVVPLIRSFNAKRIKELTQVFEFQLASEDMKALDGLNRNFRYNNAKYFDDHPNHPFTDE
Experimental: as §1, §2, §3, §4, §5

[4] = isozyme 1C3, potassium phosphate buffer pH 6, NADPH, fluorimetric

Km (AKR1C3; AKR1C3, value of the text): 0.051 µM | Kcat (AKR1C3; [4]): 0.0988 s⁻¹ | Km (AKR1C3; [4]): 0.05 µM | reduction in cytoplasmic (cytosolic) fraction (HepG2 cell fractions; HepG2 cytosolic fraction, 1 mM NADPH, 80 μg protein/mL, one hour incubation): enzymatic reduction occurred | stability / reduction in microsomal fraction (HepG2 cell fractions; HepG2 microsomes, 1 mM NADPH, 80 μg protein/mL, one hour incubation): stable in the presence of microsomes
SMILES: O=C(c1ccccc1)c1cc(=O)oc2c3c4c(cc12)CCCN4CCC3 [5c, 8-Benzoyl-2,3,5,6-tetrahydro-1H,4H-11-oxa-3a-aza-benzo[de]anthracen-10-one]

solubility [1]: > 1000 µM
SMILES: COc1ccc2cc(-c3ccc(C(C)=O)cc3)c(=O)oc2c1 [VB11]

SMILES: CC(=O)c1ccc(-c2cc3cc4c5c(c3oc2=O)CCCN5CCC4)cc1 [VB35]
solubility [1]: > 1000 µM

SMILES: CC(=O)c1ccc(-c2cc3cc4c5c(c3oc2=O)CCCN5CCC4)cc1 [compound 6, 9-(4-Acetyl-phenyl)-2,3,5,6-tetrahydro-1H,4H-11-oxa-3a-aza-benzo[de]anthracen-10-one]
reduction of probe (fluorescence increase) [2]: good conversion | reduction of probe (fluorescence increase) [3]: good conversion

SMILES: O=C(O)c1ccccc1Nc1cccc(C(F)(F)F)c1 [flufenamic acid, reference compound]
effect on reduction of 5c by the cytoplasmic extract (HepG2 cell fractions; 100 μM flufenamic acid, HepG2 cytoplasmic extract): suppressed
